# Numbers after ± are expanded uncertainties.
# Conditions: Liquid, Ebulliometric method (Recirculating still)
smiles,measurement,setting,value
CCc1ccccc1 [ethylbenzene],vapor or sublimation pressure,324.4 K,5 ± 0.1 kPa
same,vapor or sublimation pressure,333.4 K,7.5 ± 0.1 kPa
same,vapor or sublimation pressure,340 K,10 ± 0.1 kPa
same,vapor or sublimation pressure,345.5 K,12.5 ± 0.1 kPa
same,vapor or sublimation pressure,350.1 K,15 ± 0.1 kPa
same,vapor or sublimation pressure,354.1 K,17.5 ± 0.1 kPa
same,vapor or sublimation pressure,357.7 K,20 ± 0.2 kPa
same,vapor or sublimation pressure,360.9 K,22.5 ± 0.2 kPa
same,vapor or sublimation pressure,363.8 K,25 ± 0.2 kPa
C=Cc1ccccc1 [styrene],vapor or sublimation pressure,332.4 K,5 ± 0.1 kPa
same,vapor or sublimation pressure,341.4 K,7.5 ± 0.1 kPa
same,vapor or sublimation pressure,348.3 K,10 ± 0.1 kPa
same,vapor or sublimation pressure,353.9 K,12.5 ± 0.1 kPa
same,vapor or sublimation pressure,358.5 K,15 ± 0.1 kPa
same,vapor or sublimation pressure,362.6 K,17.5 ± 0.1 kPa
same,vapor or sublimation pressure,366.2 K,20 ± 0.2 kPa
same,vapor or sublimation pressure,369.4 K,22.5 ± 0.2 kPa
same,vapor or sublimation pressure,372.4 K,25 ± 0.2 kPa
